Test results: patent publication US4017595A (Research Corporation, priority 1975, dated 1977)

Experiment: Organ distribution of Indium-113m EDTMP and DTPMP complexes in rabbits, simultaneous study with Strontium-85
Assay type: in vivo, adult albino rabbits
Conditions: DTPMP group; for % Dose/1% Bodyweight, Average Bone: mean of femur, tibia, spine and pelvis; for % Dose in Whole Organ, Blood / % Dose in Whole Organ, Kidney / % Dose in Whole Organ, Liver / % Dose in Whole Organ, Marrow / % Dose in Whole Organ, Muscle / % Dose in Whole Organ, One Femur / % Dose in Whole Organ, One Tibia / % Dose in Whole Organ, Urine / % Dose/1% Bodyweight, Blood / % Dose/1% Bodyweight, Femur / % Dose/1% Bodyweight, Kidney / % Dose/1% Bodyweight, Liver / % Dose/1% Bodyweight, Marrow / % Dose/1% Bodyweight, Muscle / % Dose/1% Bodyweight, Pelvis / % Dose/1% Bodyweight, Spine / % Dose/1% Bodyweight, Tibia / Ratio Bone/Blood / Ratio Bone/Marrow / Ratio Bone/Muscle: rabbit i.v.
Description: 0.5-1.0 mCi of the complexes prepared according to Examples 1 and 4 (containing 2-5 mg of the phosphonate complex) were injected intravenously into adult albino rabbits weighing 3.5-5 kg. […] Organ distribution characteristics of these compositions were determined after sacrificing the animals 1-4 hours after injection using the method described in Perez et al, J. Nucl. Med. 13:788-789, 1972; Subramanian et al, Radiology, 98:192-196, 1971; Subramanian et al, Radiology, 102:701-704, 1972; Subramanian et al, J. Nucl. Med., 13:947-950, 1972; Tofe et al, J. Nucl. Med., 15:69-74, 1974; Yano, J. Nucl Med., 14:73-78, 1973; Castronova et al, J. Nucl. Med., 13:823-827, 1972; and Subramanian et al, J. Nucl. Med., August, 1975 (U.S. application Ser. No. 368,473, filed June 11, 1973). Appropriate corrections were made for Strontium-85 contributions in the Indium-113m windows.
For each time interval 3 animals were used and average values are set forth. The average bone concentrations expressed as % dose/1% body weight: […]
% dose/1% body weight [formula] are the mean of the concentrations in bone samples from femur, tibia, spine and pelvis. This value was calculated for individual rabbits and the mean value of these averages are shown. The values for ratios were calculated in a similar manner.
With respect to Table 1, Strontium 85 was employed as a biological standard to compare the uptake in various organs of individual groups of animals. In quantifying the bone uptake, it is necessary to compare more than merely the indium concentration from one group to another. In addition, the ratios of indium to strontium from each group should be compared because of the individual variation of bone uptake in animals.

With `O=P(O)(O)CN(CCN(CP(=O)(O)O)CP(=O)(O)O)CCN(CP(=O)(O)O)CP(=O)(O)O` [DTPMP, diethylene triamine penta(methylene phosphonic) acid] the “% Dose/1% Bodyweight, Average Bone” value (1 Hr.) was 5.14 % Dose/1% Bodyweight, the “% Dose in Whole Organ, Blood” value (1 Hr.) was 8.61 % Dose and the “% Dose in Whole Organ, Kidney” value (1 Hr.) was 2.43 % Dose. The “% Dose in Whole Organ, Liver” value (1 Hr.) was 0.702 % Dose, the “% Dose in Whole Organ, Marrow” value (1 Hr.) was 0.710 % Dose and the “% Dose in Whole Organ, Muscle” value (1 Hr.) was 4.61 % Dose. For the same compound, the “% Dose in Whole Organ, One Femur” value (1 Hr.) was 0.782 % Dose, the “% Dose in Whole Organ, One Tibia” value (1 Hr.) was 0.641 % Dose and the “% Dose in Whole Organ, Urine” value (1 Hr.) was 31.2 % Dose. The “% Dose/1% Bodyweight, Blood” value (1 Hr.) was 1.23 % Dose/1% Bodyweight, the “% Dose/1% Bodyweight, Femur” value (1 Hr.) was 3.57 % Dose/1% Bodyweight and the “% Dose/1% Bodyweight, Kidney” value (1 Hr.) was 5.62 % Dose/1% Bodyweight. For the same compound, the “% Dose/1% Bodyweight, Liver” value (1 Hr.) was 0.276 % Dose/1% Bodyweight, the “% Dose/1% Bodyweight, Marrow” value (1 Hr.) was 0.322 % Dose/1% Bodyweight and the “% Dose/1% Bodyweight, Muscle” value (1 Hr.) was 0.107 % Dose/1% Bodyweight. The “% Dose/1% Bodyweight, Pelvis” value (1 Hr.) was 7.15 % Dose/1% Bodyweight, the “% Dose/1% Bodyweight, Spine” value (1 Hr.) was 4.80 % Dose/1% Bodyweight and the “% Dose/1% Bodyweight, Tibia” value (1 Hr.) was 3.39 % Dose/1% Bodyweight. The “Ratio Bone/Blood” value (1 Hr.) was 4.17, the “Ratio Bone/Marrow” value (1 Hr.) was 15.9 and the “Ratio Bone/Muscle” value (1 Hr.) was 48.0. For the same compound, the “% Dose/1% Bodyweight, Average Bone” value (2 Hr.) was 4.58 % Dose/1% Bodyweight, the “% Dose in Whole Organ, Blood” value (2 Hr.) was 3.88 % Dose and the “% Dose in Whole Organ, Kidney” value (2 Hr.) was 1.09 % Dose. For the same compound, the “% Dose in Whole Organ, Liver” value (2 Hr.) was 0.453 % Dose, the “% Dose in Whole Organ, Marrow” value (2 Hr.) was 0.340 % Dose and the “% Dose in Whole Organ, Muscle” value (2 Hr.) was 1.92 % Dose. For the same compound, the “% Dose in Whole Organ, One Femur” value (2 Hr.) was 0.648 % Dose, the “% Dose in Whole Organ, One Tibia” value (2 Hr.) was 0.519 % Dose and the “% Dose in Whole Organ, Urine” value (2 Hr.) was 65.7 % Dose. For the same compound, the “% Dose/1% Bodyweight, Blood” value (2 Hr.) was 0.555 % Dose/1% Bodyweight, the “% Dose/1% Bodyweight, Femur” value (2 Hr.) was 3.07 % Dose/1% Bodyweight and the “% Dose/1% Bodyweight, Kidney” value (2 Hr.) was 2.40 % Dose/1% Bodyweight. The “% Dose/1% Bodyweight, Liver” value (2 Hr.) was 0.173 % Dose/1% Bodyweight, the “% Dose/1% Bodyweight, Marrow” value (2 Hr.) was 0.154 % Dose/1% Bodyweight and the “% Dose/1% Bodyweight, Muscle” value (2 Hr.) was 0.044 % Dose/1% Bodyweight. The “% Dose/1% Bodyweight, Pelvis” value (2 Hr.) was 6.15 % Dose/1% Bodyweight, the “% Dose/1% Bodyweight, Spine” value (2 Hr.) was 4.59 % Dose/1% Bodyweight and the “% Dose/1% Bodyweight, Tibia” value (2 Hr.) was 2.92 % Dose/1% Bodyweight. The “Ratio Bone/Blood” value (2 Hr.) was 8.25, the “Ratio Bone/Marrow” value (2 Hr.) was 29.7 and the “Ratio Bone/Muscle” value (2 Hr.) was 104. The “% Dose/1% Bodyweight, Average Bone” value (4 Hr.) was 4.79 % Dose/1% Bodyweight, the “% Dose in Whole Organ, Blood” value (4 Hr.) was 3.08 % Dose and the “% Dose in Whole Organ, Kidney” value (4 Hr.) was 1.03 % Dose. The “% Dose in Whole Organ, Liver” value (4 Hr.) was 0.354 % Dose, the “% Dose in Whole Organ, Marrow” value (4 Hr.) was 0.432 % Dose and the “% Dose in Whole Organ, Muscle” value (4 Hr.) was 1.92 % Dose. The “% Dose in Whole Organ, One Femur” value (4 Hr.) was 0.621 % Dose, the “% Dose in Whole Organ, One Tibia” value (4 Hr.) was 0.471 % Dose and the “% Dose in Whole Organ, Urine” value (4 Hr.) was 69.9 % Dose. For the same compound, the “% Dose/1% Bodyweight, Blood” value (4 Hr.) was 0.441 % Dose/1% Bodyweight, the “% Dose/1% Bodyweight, Femur” value (4 Hr.) was 2.97 % Dose/1% Bodyweight and the “% Dose/1% Bodyweight, Kidney” value (4 Hr.) was 2.28 % Dose/1% Bodyweight. For the same compound, the “% Dose/1% Bodyweight, Liver” value (4 Hr.) was 0.184 % Dose/1% Bodyweight, the “% Dose/1% Bodyweight, Marrow” value (4 Hr.) was 0.196 % Dose/1% Bodyweight and the “% Dose/1% Bodyweight, Muscle” value (4 Hr.) was 0.044 % Dose/1% Bodyweight. The “% Dose/1% Bodyweight, Pelvis” value (4 Hr.) was 6.37 % Dose/1% Bodyweight, the “% Dose/1% Bodyweight, Spine” value (4 Hr.) was 5.16 % Dose/1% Bodyweight and the “% Dose/1% Bodyweight, Tibia” value (4 Hr.) was 2.76 % Dose/1% Bodyweight. The “Ratio Bone/Blood” value (4 Hr.) was 10.8, the “Ratio Bone/Marrow” value (4 Hr.) was 24.4 and the “Ratio Bone/Muscle” value (4 Hr.) was 108.
